Test results taken from patent publication US9018216B2, “Solid forms of (R)-2-(5-(2-(3-ethylureido)-6-fluoro-7-(tetrahydrofuran-2-yl)-1H-benzo[d]imidazol-5-yl)pyrimidin-2-yl)propan-2-yl dihydrogen phosphate and salts thereof” (priority 2012, dated 2015).
Where “and” joins values, the source holds several entries; their conditions need not be identical. Equal entries are not always repeated. Where two headings read alike, the source gives them in different places.

Tests used:
E. coli DNA Topo IV = assay: E. coli enzyme ATPase inhibition assay (Table 27b); format: biochemical; conditions: E. coli DNA Topo IV (table title), solid forms
[1] = tested on: Enterococcus faecium ATCC 49624; assay: Gyrase MIC determination using microdilution broth method (Protocol 1); format: cell-based
Haemophilus influenzae = assay: Gyrase MIC determination against Gram negatives using microdilution broth method (Protocol 2); format: cell-based; conditions: Haemophilus influenzae Rd0894 (AcrA-)
Protocol: (§1) Compounds of this invention were tested for antimicrobial activity by susceptibility testing in liquid media. […] The specific protocols used were as follows:
(§2) Protocol 2: Gyrase MIC Determination of Compounds Against Gram Negatives Using Microdilution Broth Method
(§3) Strains (MHII Media for all; Broth and Agar): • 1. Escherichia coli AG100 WT • 2. Escherichia coli AG100 tolC • 3. […] Haemophilus influenzae Rd0894 (AcrA−)
(§4) Inoculum Prep: • 1. Using the BBL Prompt kit, picked 5 big or 10 small, well separated colonies from cultures grown on agar medium and inoculated 1 mL sterile saline that came with the kit. • 2. Vortexed the wells for ˜30 s to give a suspension of ˜10^8 cells/mL. Actual density could be confirmed by plating out dilutions of this suspension. • 3. Diluted the suspension 1/100 by transferring 0.15 mL of cells into 15 mL (˜10^6 cells/mL) sterile broth (see below) for each plate of compounds tested, swirled to mix. […] Used 50 μl cells (˜5×10^4 cells) to inoculate each microtiter well containing 50 μl of the drug diluted in broth (see below).
(§5) Drug Dilutions, Inoculation, MIC Determination: • 1. […] Diluted drug/compound stocks to 200× desired final concentration in 50 μL DMSO. If starting concentration of MICs was 8 μg/mL final concentration, then required 6.25 μL of stock+43.75 μL DMSO. Each 200× stock was placed in a separate row of column 1 of a new 96 well microtiter plate. • 3. Added 25 μL of DMSO to columns 2-12 of all rows of the microtiter plate containing 200× compound stocks and serially diluted 25 μL from column 1 through column 11, changed tips after each column. i.e. 25 μL compound+25 μL DMSO=2× dilution. Left “no compound” DMSO well at the end of the series for control. • 4. For each strain tested, prepared two microtiter plates with 50 μL of MHII broth using a Matrix pipettor. • 5. Transferred 0.5 μL of each dilution (w/Matrix auto-pipettor) to 50 μL of medium/microtiter well prior to the addition of 50 μl of cells. The usual starting concentration of compound was 8 μg/mL after the 1/200 dilution into medium+cells−compound concentrations decreased in 2× steps across the rows of a microtiter plate. All MICs were done in duplicate. • 6. All wells were inoculated with 50 μl of diluted cell suspension (see above) to a final volume of 100 μl. • 7. After inoculum was added, each well was mixed thoroughly with a manual multichannel pipettor; same tips were used going from low to high concentration of drug in the same microtiter plate. • 8. Plates were incubated at 37° C. for at least 18 hours. • 9.
(§6) Examined the test plates after the correct incubation time and read the MIC endpoint at the concentration where a marked reduction occurred in the appearance of growth on the test plate as compared to that of growth on the positive control plates.

Escherichia coli AG100 = assay: as above; format: cell-based
Protocol: as §1, §2, §3, §4, §5, §6

[2] = Vapor sorption (DVS) of free forms; format: physicochemical
Protocol: In one embodiment, the hydrated Free Form A may be converted to anhydrous Free Form B of the compound by equilibrating in a low humidity environment. […] Upon dehydrating hydrated Free Form A, a corresponding anhydrous Free Form B may be obtained. […] Whether the hydrated Free Form A could absorb additional water is not known at this time. […] At 25° C., the critical humidity for conversion is around 40% (see vapor sorption experiment). […] Humidity was then changed by 5% increments until 95% RH was achieved using the same limiting conditions. The reverse steps were executed on the desorption side from 95% down to 5% RH, while always maintaining 25° C. temperature.

[3] = Stability of the solid forms (net increase in total impurities at 40 C/30% RH); format: physicochemical
S. aureus DNA gyrase = S. aureus DNA gyrase (Staphylococcus aureus, UniProt P0A0K8); assay: DNA gyrase ATPase assay; conditions: solid forms, Table 27a
[4] = tested on: Staphylococcus aureus ATCC 29213; assay: microbe, parasite or virus in culture; format: cell-based; conditions: Protocol 1
S. aureus DNA Topo IV = S. aureus DNA Topo IV (Staphylococcus aureus, UniProt P0C1S7); assay: DNA Topo IV ATPase assay; format: biochemical; conditions: solid forms, Table 27c
Protocol: The conversion of ATP to ADP by S. aureus TopoIV enzyme was coupled to the conversion of NADH to NAD+, and the progress of the reaction was measured by the change in absorbance at 340 nm. TopoIV (64 nM) was incubated with the selected compound (3% DMSO final) in buffer for 10 minutes at 30° C. The buffer consisted of 100 mM Tris 7.5, 1.5 mM MgCl2, 200 mM K·Glutamate, 2.5 mM phosphoenol pyruvate, 0.2 mM NADH, 1 mM DTT, 5 ng/mL linearized DNA, 50 ng/mL BSA, 30 ng/mL pyruvate kinase, and 10 ng/mL lactate dehyrodgenase (LDH). The reaction was initiated with ATP, and rates were monitored continuously for 20 minutes at 30° C. on a Molecular Devices SpectraMAX plate reader. The inhibition constant, Ki, and the IC50 were determined from plots of rate vs. concentration of selected compound fit to the Morrison Equation for tight binding inhibitors.

[5] = tested on: Enterococcus faecalis ATCC 29212; assay: Gyrase MIC determination using microdilution broth method (Protocol 1); format: cell-based; conditions: Enterococcus faecalis ATCC 29212, with 3% Laked Horse Blood
[6] = Rat oral pharmacokinetic study; format: in vivo, Sprague Dawley rats; conditions: plasma analyte; for AUC: male, Sprague Dawley, plasma, po, read-out: AUCextrap
Description: (§7) Plasma concentration vs. time data was subjected to noncompartmental pharmacokinetic (PK) analysis.

[7] = Pharmacokinetic studies: in vivo conversion of prodrug; conditions: in at least rats, dogs and monkeys
Protocol: The pharmacokinetic parameters of selected compounds of this invention were determined in the experiments described below. General analytic procedures and specific experimental protocols were employed as follows: […]

[8] = tested on: M. tuberculosis ATCC 35801 (strain Erdman); assay: Mouse M. tuberculosis (Erdman) 28 day lung infection model; format: in vivo, M. tuberculosis; host Balb/c mice; conditions: 28 days; for Log Reduction vs. Early Control / Median Lung Burden / Log Reduction vs. Late Control: Table 23b
[9] = Monkey IV pharmacokinetic study; conditions: Compound W IV 5 mg/kg, D5W, plasma analyte
[10] = Monkey oral pharmacokinetic study; format: in vivo, cynomolgus monkeys; conditions: 0.5% MC, plasma analyte
Description: as §7

[11] = Rat IV pharmacokinetic study; conditions: D5W, plasma analyte
[12] = Staphylococcus aureus ATCC 29213
[13] = Enterococcus faecium ATCC 49624 with 3% Laked Horse Blood
[14] = Staphylococcus aureus ATCC 29213 with 50% Mouse Serum

CCNC(=O)Nc1nc2cc(-c3cnc(C(C)(C)OP(=O)(O)O)nc3)c(F)c([C@H]3CCCO3)c2[nH]1 [Form A, (R)-2-(5-(2-(3-ethylureido)-6-fluoro-7-(tetrahydrofuran-2-yl)-1H-benzo[d]imidazol-5-yl)pyrimidin-2-yl)propan-2-yl dihydrogen phosphate]
Ki (E. coli DNA Topo IV): 11 nM
MIC ([1]; ATCC49624, Enterococcus faecium ATCC 49624 with 3% Laked Horse Blood, read-out: MIC): 4 µg/mL
MIC (Haemophilus influenzae): 0.25 µg/mL
MIC (Escherichia coli AG100; Escherichia coli AG100 WT): >8 µg/mL
MIC (Escherichia coli AG100; Escherichia coli AG100 tolC): >8 µg/mL
water content of fully hydrated form (vapor sorption isotherm) ([2]; vapor sorption, 25° C.): about 6 weight %
Net % increase in total impurities ([3]; 15 days): 0.07%
Ki (S. aureus DNA gyrase): 26 nM
MIC [4, 12]: 4 µg/mL
MIC ([4]; Staphylococcus aureus, ATCC29213, Staphylococcus aureus ATCC 29213 with 50% Mouse Serum, read-out: MIC): 1 µg/mL
Ki (S. aureus DNA Topo IV): < 4 nM

CCNC(=O)Nc1nc2cc(-c3cnc(C(C)(C)OP(=O)(O)O)nc3)c(F)c([C@H]3CCCO3)c2[nH]1 [Form C, (R)-2-(5-(2-(3-ethylureido)-6-fluoro-7-(tetrahydrofuran-2-yl)-1H-benzo[d]imidazol-5-yl)pyrimidin-2-yl)propan-2-yl dihydrogen phosphate]
Ki (E. coli DNA Topo IV): < 6 nM
MIC [1, 13]: 4 µg/mL
MIC [5]: 2 µg/mL
MIC (Haemophilus influenzae; read-out: MIC): 0.25 µg/mL
MIC (Escherichia coli AG100; Escherichia coli AG100 WT): >16 µg/mL and >8 µg/mL
Net % increase in total impurities ([3]; 17 days, listed as C): 0.18%
Ki (S. aureus DNA gyrase): 27 nM
MIC ([4]; Staphylococcus aureus ATCC 29213 GyrB T173I): >16 µg/mL
MIC [4, 14]: 1 µg/mL and 2 µg/mL
MIC ([4]; Staphylococcus aureus, ATCC29213, Staphylococcus aureus ATCC 29213, read-out: MIC): 4 µg/mL

CCNC(=O)Nc1nc2cc(-c3cnc(C(C)(C)OP(=O)(O)O)nc3)c(F)c([C@H]3CCCO3)c2[nH]1 [Form B, (R)-2-(5-(2-(3-ethylureido)-6-fluoro-7-(tetrahydrofuran-2-yl)-1H-benzo[d]imidazol-5-yl)pyrimidin-2-yl)propan-2-yl dihydrogen phosphate]
Ki (E. coli DNA Topo IV): < 6 nM
MIC [1, 13]: 4 µg/mL
MIC (Haemophilus influenzae): 0.25 µg/mL
MIC (Escherichia coli AG100; Escherichia coli AG100 WT): 2 µg/mL
MIC (Escherichia coli AG100; Escherichia coli AG100 tolC): 2 µg/mL
critical humidity for conversion of Free Form B back to Free Form A ([2]; At 25° C.): around 40%
Net % increase in total impurities ([3]; 17 days, listed as B): 0.16%
Ki (S. aureus DNA gyrase): < 25 nM
MIC [4, 12]: 4 µg/mL
MIC [4, 14]: 1 µg/mL
Ki (S. aureus DNA Topo IV): 10 nM

CCNC(=O)Nc1nc2cc(-c3cnc(C(C)(C)OP(=O)([O-])[O-])nc3)c(F)c([C@H]3CCCO3)c2[nH]1.[Na+].[Na+] [Compound W, disodium (R)-2-(5-(2-(3-ethylureido)-6-fluoro-7-(tetrahydrofuran-2-yl)-1H-benzo[d]imidazol-5-yl)pyrimidin-2-yl)propan-2-yl phosphate]
t1/2 ([6]; Compound W oral 30 mg/kg, 0.5% MC): 3.1 h
t1/2 ([6]; Compound W oral 100 mg/kg, 0.5% MC): 7.2 h
t1/2 ([6]; Compound W oral 300 mg/kg, 0.5% MC): 11.3 h
AUC ([6]; 30 mg/kg, Compound W oral 30 mg/kg, 0.5% MC): 58 ng·h/mL
AUC ([6]; 100 mg/kg, Compound W oral 100 mg/kg, 0.5% MC): 66 ng·h/mL
AUC ([6]; 300 mg/kg, Compound W oral 300 mg/kg, 0.5% MC): 464 ng·h/mL
AUC ([6]; 300 mg/kg, Compound W oral 300 mg/kg, 20% CAPT, 1% HPMC-AS, 1% PVP): 4270 ng·h/mL
in vivo conversion of prodrug into parent [7]: converted in vivo into Compound 23
Log Reduction vs. Early Control ([8]; 10 mg/kg BID oral gavage): 0.64 Log
Median Lung Burden ([8]; 10 mg/kg BID oral gavage): 4.34 Log cfu/lungs
Log Reduction vs. Late Control ([8]; 10 mg/kg BID oral gavage, phosphate): 0.02 Log
Log Reduction vs. Early Control ([8]; 30 mg/kg BID oral gavage): 1.98 Log
Log Reduction vs. Late Control ([8]; 30 mg/kg BID oral gavage): 1.36 Log
Median Lung Burden ([8]; 30 mg/kg BID oral gavage): 3.00 Log cfu/lungs
Log Reduction vs. Early Control ([8]; 100 mg/kg BID oral gavage): 2.63 Log
Median Lung Burden ([8]; 100 mg/kg BID oral gavage): 2.35 Log cfu/lungs
Log Reduction vs. Late Control ([8]; 100 mg/kg BID oral gavage, phosphate): 2.02 Log and 2.01 Log
reduction of bacterial burdens versus the early control ([8]; doses of 10, 30, and 100 mg/kg BID): 0.64-2.63 logs
AUCextrap [9]: 5830 ng·h/mL
t1/2 [9]: 5.35 h
AUCextrap ([10]; Compound W PO 100 mg/kg): 437 ng·h/mL
t1/2 ([10]; Compound W PO 100 mg/kg): 5.31 h
t1/2 ([10]; Compound W PO 300 mg/kg): 13.15 h
AUCextrap ([11]; Compound W IV 1 mg/kg): 419 ng·h/mL
Cl_obs ([11]; Compound W IV 1 mg/kg): 46.7 mL/min/kg
Cmax/C0 ([11]; Compound W IV 1 mg/kg): 4800 ng/mL
Vss_obs ([11]; Compound W IV 1 mg/kg): 0.38 L/kg
AUCextrap ([11]; Compound W IV 5 mg/kg): 1120 ng·h/mL
Cl_obs ([11]; Compound W IV 5 mg/kg): 84.6 mL/min/kg
Cmax/C0 ([11]; Compound W IV 5 mg/kg): 9030 ng/mL
Vss_obs ([11]; Compound W IV 5 mg/kg): 5.8 L/kg
